Experiment [1] concerns the target T1, human dipeptidyl peptidase-4 (DPP4) (Homo sapiens, UniProt P27487).
T1 construct: purchased Sigma Aldrich
The experiment is described as follows: DPP4 inhibitor screening kit fluorescence assay (H-Gly-Pro-AMC cleavage). Type of experiment: biochemical. To be noted: n = 3. As for the experimental part:
Oxytocin peptide was purchased from the company Parfarm S.A (District Federal, Mexico), and human dipeptidyl peptidase-4 inhibitor screening kit, Black-well 96 well plate for fluorescence assays were purchased from Sigma Aldrich (St. Louis, MO, USA).
The experimental studies were carried out using the human DPP4 inhibitor screening kit to validate the computational results. Briefly, the pure protein DPP4 cleaves non-fluorescence substrate H-Gly-Pro-AMC and releases fluorescence product AMC whose fluorescence emissions, λex = 360 nm and λem = 460 nm on each well, were recorded in a kinetic mode for 30 min using microplate reader Thermo Scientific Varioskan Flash Multimode Reader by Thermo Scientific. The relative percent of inhibition was calculated using Equation (1), where df/dt denotes changes in fluorescence with time. The graphs were plotted for all experiments (n = 3) using Graph Pad software. All groups were compared with p < 0.05 as statistically significant. To obtain the p-value, an ordinary one-way ANOVA unpaired t-test was applied using Graph Pad software (San Diego, CA, USA). All the data in graphs are expressed as mean ± S.D:(1) % Relative inhibition=(df/dt)DPP4 enzyme−(df/dt)(DPP4−OXT peptide)/(df/dt)DPP4 enzyme×100

Experiment [2] deals with DPP4. To be noted: cited from earlier work; for IC50: read-out: IC50 (uM), peptides as DPP4 inhibitors, Supplementary Table S1.

T1 sequence (P27487 whole entry): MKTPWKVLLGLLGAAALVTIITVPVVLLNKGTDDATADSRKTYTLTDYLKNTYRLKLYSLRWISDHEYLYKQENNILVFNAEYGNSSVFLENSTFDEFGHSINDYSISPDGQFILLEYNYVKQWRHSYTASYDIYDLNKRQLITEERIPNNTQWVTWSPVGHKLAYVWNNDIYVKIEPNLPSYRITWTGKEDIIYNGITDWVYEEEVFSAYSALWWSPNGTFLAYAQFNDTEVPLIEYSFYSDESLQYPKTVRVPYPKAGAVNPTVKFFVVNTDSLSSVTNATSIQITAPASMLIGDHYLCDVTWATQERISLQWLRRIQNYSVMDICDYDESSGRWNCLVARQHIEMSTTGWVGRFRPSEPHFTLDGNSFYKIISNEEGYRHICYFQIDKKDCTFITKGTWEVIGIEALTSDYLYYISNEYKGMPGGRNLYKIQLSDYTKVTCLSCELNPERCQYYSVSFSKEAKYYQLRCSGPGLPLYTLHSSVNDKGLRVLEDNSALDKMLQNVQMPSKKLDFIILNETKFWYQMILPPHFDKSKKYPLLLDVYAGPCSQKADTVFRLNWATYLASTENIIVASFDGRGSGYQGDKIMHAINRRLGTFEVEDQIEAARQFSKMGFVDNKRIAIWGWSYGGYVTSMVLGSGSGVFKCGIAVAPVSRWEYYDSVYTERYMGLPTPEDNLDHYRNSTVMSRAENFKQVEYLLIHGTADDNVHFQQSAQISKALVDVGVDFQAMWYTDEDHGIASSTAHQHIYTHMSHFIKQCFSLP

Regarding `CC[C@H](C)[C@@H]1NC(=O)[C@H](Cc2ccc(O)cc2)NC(=O)[C@@H](N)CSSC[C@@H](C(=O)N2CCC[C@H]2C(=O)N[C@@H](CC(C)C)C(=O)NCC(N)=O)NC(=O)[C@H](CC(N)=O)NC(=O)[C@H](CCC(N)=O)NC1=O` [oxytocin], in experiment [1] (2 nM oxytocin, mean, read-out: relative percent inhibition of DPP4), the inhibition at 0.002 µM was found to be 6.3%. Moreover, the inhibition at 0.019 µM in experiment [1] (19 nM oxytocin, mean, read-out: relative percent inhibition of DPP4) amounted to 44.5%. Further, the inhibition at 0.28037 µM in experiment [1] (280.37 nM oxytocin, mean, read-out: relative percent inhibition of DPP4) turned out to be 61.6%. The inhibition at 0.85047 µM in experiment [1] (850.47 nM oxytocin, mean, read-out: relative percent inhibition of DPP4) is 75.4%. In addition, the inhibition at 1.6 µM in experiment [1] (1600 nM oxytocin, mean, read-out: relative percent inhibition of DPP4) is 81.2%. For the same compound, the IC50 in experiment [1] (fluorescence assay, substrate H-Gly-Pro-AMC, λex 360 nm / λem 460 nm, kinetic mode 30 min, dose-response curve in Figure S1, read-out: inhibitory concentration IC50 of DPP4) was 0.111 µM.

As to Diprotin A, the “IC50 of DPP4” value in experiment [2] (peptide isolated from culture of Bacillus cereus) was 2900 µg/mL. Besides, the IC50 in experiment [2] is 2.9 µM.

Regarding FPGPIPD, the IC50 in experiment [2] was 260 µM.

On to GPAG, for which, in experiment [2], the IC50 is 41.1 µM.

Consider GPGA, for which, in experiment [2], the IC50 was 41.9 µM.

For the compound IPAVF, the IC50 in experiment [2] is 44.7 µM.

Take IPIQY: in experiment [2], the IC50 is 26.7 µM.

Consider IPIY, for which, in experiment [2], the IC50 is 35.2 µM.

With LPLPL, the IC50 in experiment [2] is 358 µM.

LPQNIPP: the IC50 in experiment [2] was 160 µM.

With LPYPY, the IC50 in experiment [2] is 90.8 µM.

Regarding PGPIHDS, in experiment [2], the IC50 is 1000 µM.

Take YPYY: in experiment [2], the IC50 was 208 µM.

In general, inhibition refers to how much of the control response was suppressed.

The values are drawn from paper PMC6864445, “New Molecular Insights into the Inhibition of Dipeptidyl Peptidase-4 by Natural Cyclic Peptide Oxytocin” (Molecules, 2019).
